The results in this text go back to patent publication US8815882B2, “Pyrazole aminopyrimidine derivatives as LRRK2 modulators” (Genentech, Inc., priority 2010, dated 2014).

In the first test the target is T1, LRRK2 (Homo sapiens, UniProt Q5S007, G2019S).
T1 construct: purchased Invitrogen PV4882 (lot 567054A)
T1 sequence (Q5S007 whole entry G2019S): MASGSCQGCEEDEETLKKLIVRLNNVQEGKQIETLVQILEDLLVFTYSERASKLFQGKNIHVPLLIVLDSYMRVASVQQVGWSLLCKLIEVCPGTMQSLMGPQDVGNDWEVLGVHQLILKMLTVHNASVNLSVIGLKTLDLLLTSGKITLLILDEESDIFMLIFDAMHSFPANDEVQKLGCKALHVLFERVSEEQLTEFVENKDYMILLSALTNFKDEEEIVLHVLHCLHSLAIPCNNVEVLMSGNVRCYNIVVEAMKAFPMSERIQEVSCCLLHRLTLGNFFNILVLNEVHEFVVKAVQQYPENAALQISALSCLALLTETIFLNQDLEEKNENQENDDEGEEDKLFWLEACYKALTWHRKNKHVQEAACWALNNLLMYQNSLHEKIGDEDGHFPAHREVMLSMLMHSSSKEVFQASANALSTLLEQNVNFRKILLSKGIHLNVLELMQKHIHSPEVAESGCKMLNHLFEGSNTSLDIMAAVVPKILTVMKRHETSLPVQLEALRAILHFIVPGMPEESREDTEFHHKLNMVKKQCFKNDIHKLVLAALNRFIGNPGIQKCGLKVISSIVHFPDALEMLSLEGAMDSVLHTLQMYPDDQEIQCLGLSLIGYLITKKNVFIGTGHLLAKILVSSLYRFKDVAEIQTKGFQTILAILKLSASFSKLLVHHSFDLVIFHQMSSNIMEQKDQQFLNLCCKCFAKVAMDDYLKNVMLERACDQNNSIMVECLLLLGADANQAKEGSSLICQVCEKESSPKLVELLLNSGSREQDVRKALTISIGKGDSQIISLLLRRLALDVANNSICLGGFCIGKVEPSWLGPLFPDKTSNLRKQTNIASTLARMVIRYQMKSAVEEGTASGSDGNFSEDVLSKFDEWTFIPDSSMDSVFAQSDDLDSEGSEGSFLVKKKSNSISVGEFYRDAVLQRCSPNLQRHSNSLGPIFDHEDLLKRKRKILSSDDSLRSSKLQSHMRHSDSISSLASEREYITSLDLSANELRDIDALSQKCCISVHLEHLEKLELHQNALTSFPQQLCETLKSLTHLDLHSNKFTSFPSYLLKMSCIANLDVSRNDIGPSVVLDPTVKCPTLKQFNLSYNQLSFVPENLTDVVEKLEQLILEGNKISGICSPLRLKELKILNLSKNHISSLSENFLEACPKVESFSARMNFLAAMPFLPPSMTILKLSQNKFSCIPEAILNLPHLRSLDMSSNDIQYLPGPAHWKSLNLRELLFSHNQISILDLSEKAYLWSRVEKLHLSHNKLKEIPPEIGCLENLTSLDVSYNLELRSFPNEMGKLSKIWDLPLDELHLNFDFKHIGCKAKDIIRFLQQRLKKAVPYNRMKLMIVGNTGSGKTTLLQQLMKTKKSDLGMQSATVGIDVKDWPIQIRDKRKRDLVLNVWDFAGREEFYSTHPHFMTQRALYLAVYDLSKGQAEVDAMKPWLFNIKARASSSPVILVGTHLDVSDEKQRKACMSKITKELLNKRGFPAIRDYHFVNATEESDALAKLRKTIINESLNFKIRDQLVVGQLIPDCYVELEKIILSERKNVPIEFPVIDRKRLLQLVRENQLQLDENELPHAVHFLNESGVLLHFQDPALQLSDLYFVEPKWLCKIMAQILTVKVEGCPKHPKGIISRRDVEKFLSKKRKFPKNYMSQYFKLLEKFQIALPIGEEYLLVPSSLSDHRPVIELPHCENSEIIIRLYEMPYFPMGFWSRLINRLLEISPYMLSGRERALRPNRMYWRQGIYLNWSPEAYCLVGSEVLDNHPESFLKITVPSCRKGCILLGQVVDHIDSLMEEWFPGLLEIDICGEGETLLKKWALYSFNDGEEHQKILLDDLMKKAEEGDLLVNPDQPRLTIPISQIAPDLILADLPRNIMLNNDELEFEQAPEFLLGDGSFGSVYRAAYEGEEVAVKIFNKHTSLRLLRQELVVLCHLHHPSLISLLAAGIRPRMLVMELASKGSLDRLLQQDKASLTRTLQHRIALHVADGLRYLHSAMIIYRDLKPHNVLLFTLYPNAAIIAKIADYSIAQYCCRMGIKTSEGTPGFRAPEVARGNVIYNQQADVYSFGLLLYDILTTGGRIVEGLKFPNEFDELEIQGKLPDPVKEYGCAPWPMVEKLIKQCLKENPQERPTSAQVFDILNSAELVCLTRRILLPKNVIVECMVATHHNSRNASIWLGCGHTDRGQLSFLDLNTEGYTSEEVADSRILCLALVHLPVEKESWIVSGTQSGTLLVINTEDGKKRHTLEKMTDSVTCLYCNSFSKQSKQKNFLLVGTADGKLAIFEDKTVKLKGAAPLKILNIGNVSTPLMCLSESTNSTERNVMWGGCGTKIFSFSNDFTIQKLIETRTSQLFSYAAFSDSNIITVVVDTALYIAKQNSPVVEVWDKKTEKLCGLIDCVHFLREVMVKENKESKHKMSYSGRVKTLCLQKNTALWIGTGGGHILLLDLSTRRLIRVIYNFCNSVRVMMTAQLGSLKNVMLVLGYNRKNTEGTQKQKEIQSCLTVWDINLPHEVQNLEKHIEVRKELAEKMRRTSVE
The test is described as follows: In Vitro LRRK2 Assay (LabChip 3000, fluorescently-labeled peptide substrate, ATP). The format is biochemical. Conditions: Table 9; LRRK2 Ki (micromolar); read-out: LRRK2 Ki (KI). In short, it runs like this: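 LRRK2, fluorescent peptide substrate (diluted to 4 μM before mixing), ATP and compound were incubated 2 h in the dark, then stopped. Phosphorylated and unphosphorylated peptide were separated by capillary electrophoresis and quantified by fluorescence. Ki was fitted with a tight-binding equation including enzyme concentration, S and Km; IC50 or percent inhibition were also reported.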
As to `CNc1nc(Nc2cn(-c3ccc(Cl)cc3)nc2C)ncc1C#N` [Example 368, 2-(1-(4-chlorophenyl)-3-methyl-1H-pyrazol-4-ylamino)-4-(methylamino) pyrimidine-5-carbonitrile], the Ki (usually the equilibrium dissociation constant of an inhibitor or competing ligand from its target) amounted to 82 nM. Still for that read-out and setting: with `CNc1nc(Nc2cnn(-c3ccc(F)cc3)c2C)ncc1C#N` [Example 386, 2-[1-(4-Fluoro-phenyl)-5-methyl-1H-pyrazol-4-ylamino]-4-methylamino-pyrimidine-5-carbonitrile] the figure was 95.9 nM.

As for `CNc1nc(Nc2cn(C)nc2C)ncc1C#N` [Example 350, 2-(1,3-Dimethyl-1H-pyrazol-4-ylamino)-4-methylamino-pyrimidine-5-carbonitrile], the inhibitory constant (Ki) was 29 nM.

Staying with this test, now noted: Table 10; LRRK2 Ki (micromolar); read-out: LRRK2 Ki (KI).
For `CNc1nc(Nc2cnn(C(C)(C)C(=O)OC)c2C)ncc1C(F)(F)F` [Example 409, methyl 2-methyl-2-(5-methyl-4-(4-(methylamino)-5-(trifluoromethyl)pyrimidin-2-ylamino)-1H-pyrazol-1-yl)propanoate], the inhibition constant Ki was 7.6 nM. With `CNc1nc(Nc2cn([C@H](C)C(=O)N(C)C)nc2C)ncc1C(F)(F)F` [Example 404, (R)-N,N-dimethyl-2-(3-methyl-4-(4-(methylamino)-5-(trifluoromethyl)pyrimidin-2-ylamino)-1H-pyrazol-1-yl)propanamide], the Ki was 18 nM. For `CNC(=O)Cn1ncc(Nc2ncc(C(F)(F)F)c(NC)n2)c1C` [Example 398, N-methyl-2-(5-methyl-4-(4-(methylamino)-5-(trifluoromethyl)pyrimidin-2-ylamino)-1H-pyrazol-1-yl)acetamide], the Ki amounted to 3 nM. For the molecule `CNc1nc(Nc2cnn([C@@H](C)C#N)c2C)ncc1C(F)(F)F` [Example 415, (S)-2-(5-methyl-4-(4-(methylamino)-5-(trifluoromethyl)pyrimidin-2-ylamino)-1H-pyrazol-1-yl)propanenitrile], the Ki worked out at 9.5 nM. Consider `CNC(=O)C(C)(C)n1cc(Nc2ncc(C(F)(F)F)c(NC3CC3)n2)c(C)n1` [Example 449, 2-[4-(4-Cyclopropylamino-5-trifluoromethyl-pyrimidin-2-ylamino)-3-methyl-pyrazol-1-yl]-N-methyl-isobutyramide], for which the Ki was found to be 1.3 nM.

The test is the same for the next values; noted with them: read-out: LRRK2 Ki (KI), Table 7.
As for `COc1nc(Nc2cn(S(=O)(=O)C3CC3)nc2C)ncc1Cl` [Example 71, 5-chloro-N-(1-(cyclopropyl-sulfonyl)-3-methyl-1H-pyrazol-4-yl)-4-methoxy-pyrimidin-2-amine], the inhibition constant Ki worked out at 20 nM. Regarding `COc1nc(Nc2cn(-c3ccccc3)nc2C)ncc1C(F)(F)F` [Example 77, (4-Methoxy-5-trifluoromethyl-pyrimidin-2-yl)-(3-methyl-1-phenyl-1H-pyrazol-4-yl)-amine], the inhibition constant Ki came out at 1.6 nM. Same read-out and setting: the value for `COCCn1cc(Nc2ncc(Cl)c(OC)n2)c(C)n1` [Example 19, 5-Chloro-4-methoxy-N-(1-(2-methoxyethyl)-3-methyl-1H-pyrazol-4-yl)pyrimidin-2-amine] was 15 nM; that for `CNc1nc(Nc2cn(C3CCOCC3)nc2C)ncc1C(F)(F)F` [Example 32, N^4-methyl-N^2-(3-methyl-1-(tetrahydro-2H-pyran-4-yl)-1H-pyrazol-4-yl)-5-(trifluoromethyl) pyrimidine-2,4-diamine] was 24 nM. In the case of `CNc1nc(Nc2cc(C(C)C)nn2C)ncc1Cl` [Example 42, 5-Chloro-N^2-(5-isopropyl-2-methyl-2H-pyrazol-3-yl)-N^4-methyl-pyrimidine-2,4-diamine], the Ki was 16 nM. As to `COc1nc(Nc2cn(S(C)(=O)=O)nc2C)ncc1Cl` [Example 54, 5-chloro-4-methoxy-N-(3-methyl-1-(methylsulfonyl)-1H-pyrazol-4-yl)pyrimidin-2-amine], the inhibition constant Ki is 7.8 nM. For `CCNc1nc(Nc2ccn(C)n2)ncc1C(F)(F)F` [Example 61, N^4-ethyl-N^2-(1-methyl-1H-pyrazol-3-yl)-5-(trifluoromethyl) pyrimidine-2,4-diamine], the Ki is 4.6 nM. Take `COc1nc(Nc2cn(-c3ccncc3C)nc2C)ncc1Cl` [Example 69, 5-chloro-4-methoxy-N-(3-methyl-1-(3-methylpyridin-4-yl)-1H-pyrazol-4-yl)pyrimidin-2-amine]: the Ki was 55 nM.

Staying with this test, now noted: read-out: LRRK2 Ki (KI), Table 8.
With `CCNc1nc(Nc2cnn(C3CCN(CC4OCCO4)C3)c2C)ncc1C(F)(F)F` (stereo not drawn) [Example 328, N2-[1-(1-[1,3]Dioxolan-2-ylmethyl-pyrrolidin-3-yl)-5-methyl-1H-pyrazol-4-yl]-N4-ethyl-5-trifluoromethyl-pyrimidine-2,4-diamine], the inhibitory constant (Ki) is 0.4 nM.

As for `CCNc1nc(Nc2cn(C3CCN(C)CC3)nc2C)ncc1C(F)(F)F` [Example 208, N4-ethyl-N2-(3-methyl-1-(1-methylpiperidin-4-yl)-1H-pyrazol-4-yl)-5-(trifluoromethyl) pyrimidine-2,4-diamine], the inhibition constant (Ki) was found to be 10.2 nM. On the same count and under the same terms, the value for `CCNc1nc(Nc2cn(C3COC3)nc2C)ncc1C(F)(F)F` [Example 97, N4-ethyl-N2-(3-methyl-1-(oxetan-3-yl)-1H-pyrazol-4-yl)-5-(trifluoromethyl) pyrimidine-2,4-diamine] was 1.6 nM.

As for `CNc1nc(Nc2cn(CC(C)(C)O)nc2C)ncc1C(F)(F)F` [Example 250, 2-Methyl-1-[3-methyl-4-(4-methylamino-5-trifluoromethyl-pyrimidin-2-ylamino)-pyrazol-1-yl]-propan-2-ol], the Ki worked out at 12.2 nM. In the case of `CNc1nc(Nc2cnn(-c3ccc(S(C)(=O)=O)cc3)c2C)ncc1C(F)(F)F` [Example 125, N4-methyl-N2-(5-methyl-1-(4-(methylsulfonyl)phenyl)-1H-pyrazol-4-yl)-5-(trifluoromethyl) pyrimidine-2,4-diamine], the inhibition constant Ki was 4.7 nM. Turning to `CNc1nc(Nc2cn(C[C@@H](C)OC)nc2C)ncc1C(F)(F)F` [Example 270, N2-[1-((R)-2-Methoxy-propyl)-3-methyl-1H-pyrazol-4-yl]-N4-methyl-5-trifluoromethyl-pyrimidine-2,4-diamine], the inhibition constant Ki worked out at 17 nM. Still for that read-out and setting: with `CCS(=O)(=O)n1cc(Nc2ncc(C(F)(F)F)c(NC)n2)c(C)n1` [Example 249, N^2-(1-(ethylsulfonyl)-3-methyl-1H-pyrazol-4-yl)-N4-methyl-5-(trifluoromethyl) pyrimidine-2,4-diamine] the figure was 3.3 nM; with `CNc1nc(Nc2cn(-c3cncnc3)nc2C)ncc1C(F)(F)F` [Example 140, N4-methyl-N2-(3-methyl-1-(pyrimidin-5-yl)-1H-pyrazol-4-yl)-5-(trifluoromethyl) pyrimidine-2,4-diamine], 6.1 nM.

In the case of `CNc1nc(Nc2cn(CC(C)(C)O)nc2C2CC2)ncc1C(F)(F)F` [Example 235, 1-(3-cyclopropyl-4-(4-(methylamino)-5-(trifluoromethyl)pyrimidin-2-ylamino)-1H-pyrazol-1-yl)-2-methylpropan-2-ol], the Ki was found to be 5.1 nM. Take `CNc1nc(Nc2cn(-c3ccncc3C)nc2C)ncc1C(F)(F)F` [Example 269, N4-Methyl-N2-[3-methyl-1-(3-methyl-pyridin-4-yl)-1H-pyrazol-4-yl]-5-trifluoromethyl-pyrimidine-2,4-diamine]: the Ki was determined as 9.1 nM. In the case of `CCNc1nc(Nc2cn(C(C)(C)c3ncn(C)n3)nc2C)ncc1C(F)(F)F` [Example 338, N4-ethyl-N2-(3-methyl-1-(2-(1-methyl-1H-1,2,4-triazol-3-yl)propan-2-yl)-1H-pyrazol-4-yl)-5-(trifluoromethyl) pyrimidine-2,4-diamine], the inhibition constant (Ki) was found to be 0.3 nM.

Take `CCNc1nc(Nc2cnn(C3CCN(C(=O)C(C)C)CC3)c2C)ncc1C(F)(F)F` [Example 267, 1-{4-[4-(4-Ethylamino-5-trifluoromethyl-pyrimidin-2-ylamino)-5-methyl-pyrazol-1-yl]-piperidin-1-yl}-2-methyl-propan-1-one]: the Ki amounted to 0.8 nM. Take `CCS(=O)(=O)n1ncc(Nc2ncc(C(F)(F)F)c(NC)n2)c1C` [Example 287, N2-(1-Ethanesulfonyl-5-methyl-1H-pyrazol-4-yl)-N4-methyl-5-trifluoromethyl-pyrimidine-2,4-diamine]: the Ki is 7.2 nM. For `CNc1nc(Nc2cn(-c3ccc(F)cc3)nc2C)ncc1Br` [Example 108, 5-bromo-N2-(1-(4-fluorophenyl)-3-methyl-1H-pyrazol-4-yl)-N4-methylpyrimidine-2,4-diamine], the Ki came out at 0.3 nM.

`CCNc1nc(Nc2cn(C3COC3)nc2C)ncc1Br` [Example 104, 5-bromo-N4-ethyl-N2-(3-methyl-1-(oxetan-3-yl)-1H-pyrazol-4-yl)pyrimidine-2,4-diamine]: the inhibition constant Ki worked out at 1.4 nM.

In the case of `CCCCn1ncc(Nc2ncc(C(F)(F)F)c(NC)n2)c1C` [Example 127, N2-(1-butyl-5-methyl-1H-pyrazol-4-yl)-N4-methyl-5-(trifluoromethyl) pyrimidine-2,4-diamine], the Ki is 0.3 nM. For `CNc1nc(Nc2cnn(Cc3cccc(C)n3)c2C)ncc1C(F)(F)F` [Example 314, N4-Methyl-N2-[5-methyl-1-(6-methyl-pyridin-2-ylmethyl)-1H-pyrazol-4-yl]-5-trifluoromethyl-pyrimidine-2,4-diamine], the Ki came out at 1.5 nM.

For `CCNc1nc(Nc2cn(C3CCN(CC4OCCO4)C3)nc2C)ncc1C(F)(F)F` (stereo not drawn) [Example 322, N2-[1-(1-[1,3]Dioxolan-2-ylmethyl-pyrrolidin-3-yl)-3-methyl-1H-pyrazol-4-yl]-N4-ethyl-5-trifluoromethyl-pyrimidine-2,4-diamine], the inhibition constant (Ki) was 4.9 nM. On to `CCCn1cc(Nc2ncc(C(F)(F)F)c(NC)n2)c(C)n1` [Example 120, N4-methyl-N2-(3-methyl-1-propyl-1H-pyrazol-4-yl)-5-(trifluoromethyl) pyrimidine-2,4-diamine], for which the Ki was determined as 0.6 nM.

Staying with this test, now noted: read-out: LRRK2 Ki given in the example.
`CNc1nc(Nc2cnn(C)c2C)ncc1C#N` [Example 349, 2-(1,5-Dimethyl-1H-pyrazol-4-ylamino)-4-(methylamino)pyrimidine-5-carbonitrile]: the inhibition constant Ki is 25 nM.
